“And” between values parts separate entries of the source, which are not always exact repeats. Equal values may be shown once.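 Cells were grown in 96-well plates and exposed to each compound for 48 hours at five concentrations; endpoints were interpolated linearly between bracketing concentrations, or set to the highest concentration if not reached. Abbreviation: GI50, concentration required for 50% inhibition of growth. TGI marks complete inhibition of growth.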
Key:
Test in all cases: NCI tumour cell line growth inhibition, 48 h
SW-620 colon = system: SW-620 colon
HL-60(TB) leukemia = system: HL-60(TB) leukemia
SF-295 CNS = system: SF-295 CNS
RXF 393 renal = system: RXF 393 renal
HCT-15 colon = system: HCT-15 colon
DU-145 prostate = system: DU-145 prostate
RPMI-8226 leukemia = system: RPMI-8226 leukemia
U251 CNS = system: U251 CNS
EKVX NSCLC = system: EKVX NSCLC
CCRF-CEM leukemia = system: CCRF-CEM leukemia

## Clc1ccc(-c2cc(-c3ccccc3)nc(N3CCN(CCCNc4ccnc5cc(Cl)ccc45)CC3)n2)cc1
SW-620 colon
  GI50: 1.42 µM
  TGI: 3.06 µM
HL-60(TB) leukemia
  GI50: 1 µM
  TGI: 2.83 µM
SF-295 CNS
  GI50: 1.86 µM
  TGI: 3.72 µM
RXF 393 renal
  GI50: 1.25 µM
  TGI: 2.58 µM
HCT-15 colon
  GI50: 0.779 µM
  TGI: 2.48 µM
DU-145 prostate
  GI50: 1.52 µM
  TGI: 2.94 µM
RPMI-8226 leukemia
  GI50: 1.74 µM
  TGI: 4.41 µM
U251 CNS
  GI50: 1.29 µM
  TGI: 2.63 µM

## O=CC(OC(=O)c1ccccc1)C(OC(=O)c1ccccc1)C(COC(c1ccccc1)(c1ccccc1)c1ccccc1)OC(=O)c1ccccc1 (centres undefined)
SW-620 colon
  GI50: 5.13 µM
  TGI: 20.7 µM
HL-60(TB) leukemia
  GI50: 3.25 µM
  TGI: 20.7 µM
SF-295 CNS
  GI50: 23.8 µM
  TGI: 73.5 µM
RXF 393 renal
  GI50: 4.11 µM
  TGI: 21.1 µM
HCT-15 colon
  GI50: 16.6 µM
  TGI: 43.1 µM
EKVX NSCLC
  GI50: 19.6 µM
  TGI: 61.5 µM
CCRF-CEM leukemia
  GI50: 2.21 µM
  TGI: 7.26 µM
DU-145 prostate
  GI50: 15.3 µM
  TGI: 28.6 µM
U251 CNS
  GI50: 7.51 µM
  TGI: 20.2 µM

## Cc1cc(S(=O)(=O)/N=C(\N)Nc2cccc(O)c2)c(SCc2ccccc2)cc1Cl
SW-620 colon
  GI50: 29.3 µM
  TGI: > 100 µM
HL-60(TB) leukemia
  GI50: 12.9 µM
  TGI: 62.9 µM
SF-295 CNS
  GI50: 16.7 µM
  TGI: 51.2 µM
RXF 393 renal
  GI50: 16.2 µM
  TGI: 39.9 µM
HCT-15 colon
  GI50: 18.6 µM
  TGI: 48 µM
EKVX NSCLC
  GI50: 12.7 µM
  TGI: 37.2 µM
DU-145 prostate
  GI50: 24.4 µM
  TGI: 81.8 µM
RPMI-8226 leukemia
  GI50: 5.81 µM
  TGI: > 100 µM
U251 CNS
  GI50: 18.9 µM
  TGI: 48.6 µM

## CC(C)C[C@H](CC(=O)O)C(=O)N[C@@H](Cc1c[nH]c2ccccc12)C(=O)N[C@@H](C)c1ccccc1
SW-620 colon
  GI50: > 25 µM
  TGI: > 25 µM
SF-295 CNS
  GI50: > 25 µM
  TGI: > 25 µM
RXF 393 renal
  GI50: > 25 µM
  TGI: > 25 µM
HCT-15 colon
  GI50: > 25 µM
  TGI: > 25 µM
EKVX NSCLC
  GI50: > 25 µM
  TGI: > 25 µM
CCRF-CEM leukemia
  GI50: > 25 µM
  TGI: > 25 µM
DU-145 prostate
  GI50: > 25 µM
  TGI: > 25 µM
U251 CNS
  GI50: > 25 µM
  TGI: > 25 µM

## C[C@@H](C1CC[C@H]2[C@@H]3[C@@H]4O[C@@H]4[C@@]4(O)CC=CC(=O)[C@]4(C)[C@H]3C[C@H](O)[C@]12C)[C@H]1C[C@]2(C)O[C@]2(C)C(=O)O1 (some centres undefined)
SW-620 colon
  TGI: > 100 µM
HL-60(TB) leukemia
  TGI: > 100 µM
SF-295 CNS
  TGI: > 100 µM
HCT-15 colon
  TGI: > 100 µM
EKVX NSCLC
  TGI: > 100 µM
CCRF-CEM leukemia
  TGI: > 100 µM
DU-145 prostate
  TGI: > 100 µM
RPMI-8226 leukemia
  TGI: > 100 µM
U251 CNS
  TGI: > 100 µM

## Nc1nc(N)c2c(n1)NC(c1sc(Cl)nc1Cl)CC(c1ccccc1)=N2 (centres undefined)
SW-620 colon
  GI50: 3.42 µM
  TGI: 13.3 µM
HL-60(TB) leukemia
  GI50: 2.04 µM
  TGI: 8.22 µM
SF-295 CNS
  GI50: 3.06 µM
  TGI: 13.3 µM
RXF 393 renal
  GI50: 2.48 µM
  TGI: 9.5 µM
HCT-15 colon
  GI50: 3.05 µM
  TGI: 15.2 µM
CCRF-CEM leukemia
  GI50: 3.21 µM
  TGI: 16.9 µM
DU-145 prostate
  GI50: 11.2 µM
  TGI: 24.2 µM
RPMI-8226 leukemia
  GI50: 4.99 µM
  TGI: 31.5 µM

## O=C(Nc1ccc(OS(=O)(=O)c2ccc(F)cc2)cc1)C12CC3CC(CC(C3)C1)C2
SW-620 colon
  GI50: 0.54 µM
  TGI: > 100 µM
HL-60(TB) leukemia
  GI50: > 29 µM
  TGI: > 100 µM
SF-295 CNS
  GI50: 1.57 µM
  TGI: 29.1 µM
RXF 393 renal
  GI50: 3.15 µM
  TGI: 22.5 µM
HCT-15 colon
  GI50: 0.558 µM
  TGI: > 100 µM
DU-145 prostate
  GI50: 13.9 µM
  TGI: 99.2 µM
RPMI-8226 leukemia
  GI50: 0.403 µM
  TGI: > 100 µM
U251 CNS
  GI50: 18 µM
  TGI: > 100 µM

## O/N=C1/CCCC/C1=C/C=C/c1ccccc1
SW-620 colon
  TGI: 77.1 µM
HL-60(TB) leukemia
  TGI: 41.2 µM
SF-295 CNS
  TGI: 69.8 µM
RXF 393 renal
  TGI: 41.5 µM
HCT-15 colon
  TGI: 36.2 µM
CCRF-CEM leukemia
  TGI: 67 µM
DU-145 prostate
  TGI: 62.9 µM
RPMI-8226 leukemia
  TGI: 71.7 µM
U251 CNS
  TGI: 32.3 µM

## CC12Nc3ccccc3C1=C(c1ccccc1)CC1C(=O)OC(=O)C12 (centres undefined)
SW-620 colon
  TGI: > 100 µM
HL-60(TB) leukemia
  TGI: > 100 µM
SF-295 CNS
  TGI: > 100 µM
RXF 393 renal
  TGI: > 100 µM
HCT-15 colon
  TGI: > 100 µM
EKVX NSCLC
  TGI: > 100 µM
CCRF-CEM leukemia
  TGI: > 100 µM
RPMI-8226 leukemia
  TGI: > 100 µM
U251 CNS
  TGI: > 100 µM

## C/C(=N\Nc1ccccc1)c1sc(-c2nc(C)c(/C(C)=N/Nc3ccccc3)s2)nc1C
SW-620 colon
  TGI: > 35.2 µM
HL-60(TB) leukemia
  TGI: > 100 µM
SF-295 CNS
  TGI: > 34.9 µM
RXF 393 renal
  TGI: > 87.9 µM
HCT-15 colon
  TGI: > 20.2 µM
EKVX NSCLC
  TGI: > 100 µM
CCRF-CEM leukemia
  TGI: > 100 µM
RPMI-8226 leukemia
  TGI: > 100 µM
U251 CNS
  TGI: > 100 µM

## NC(Cc1ccccc1)C(=O)OCN1C(=O)C2C3C=CC(C2C1=O)C1C2C(=O)N(COC(=O)C(N)Cc4ccccc4)C(=O)C2C31 (centres undefined)
SW-620 colon
  TGI: 51.3 µM and 52.8 µM
HL-60(TB) leukemia
  TGI: 43.5 µM and > 100 µM
SF-295 CNS
  TGI: > 100 µM
RXF 393 renal
  TGI: 41.7 µM and 39.3 µM
HCT-15 colon
  TGI: 35.2 µM and 35.3 µM
EKVX NSCLC
  TGI: > 100 µM
CCRF-CEM leukemia
  TGI: 50.3 µM and > 100 µM
RPMI-8226 leukemia
  TGI: 56.4 µM and 44.7 µM
U251 CNS
  TGI: 39.1 µM and 34.6 µM

## Cc1ccc2c(c1)[n+](=O)c(C(=O)c1cccs1)c(C(F)(F)F)n2[O-]
SW-620 colon
  GI50: 2.02 µM and 3.58 µM
  TGI: 50 µM and 20.4 µM
HL-60(TB) leukemia
  GI50: 1.5 µM and 0.713 µM
  TGI: 33.7 µM and 57.3 µM
SF-295 CNS
  GI50: 0.786 µM and 0.842 µM
  TGI: 2.46 µM and 5.87 µM
HCT-15 colon
  GI50: 0.753 µM and 0.618 µM
  TGI: 7 µM and 14.8 µM
EKVX NSCLC
  GI50: 0.729 µM and 0.278 µM
  TGI: 1.87 µM and 0.746 µM
CCRF-CEM leukemia
  GI50: 1.72 µM
  TGI: 50 µM
DU-145 prostate
  GI50: 0.913 µM and 0.573 µM
  TGI: 2.08 µM and 2.42 µM
RPMI-8226 leukemia
  GI50: 1.54 µM and 0.356 µM
U251 CNS
  GI50: 1.6 µM and 0.906 µM
  TGI: 10.1 µM and 14.3 µM

## O=C1C=CC2(CCCCCCC2=O)CC1 (centres undefined)
SW-620 colon
  TGI: > 100 µM
HL-60(TB) leukemia
  TGI: > 100 µM
SF-295 CNS
  TGI: > 100 µM
RXF 393 renal
  TGI: > 100 µM
HCT-15 colon
  TGI: > 100 µM
EKVX NSCLC
  TGI: > 100 µM
CCRF-CEM leukemia
  TGI: > 100 µM
RPMI-8226 leukemia
  TGI: > 100 µM
U251 CNS
  TGI: > 100 µM

## CCc1cccc(C(C)C)c1NC(=O)CC1Sc2ccccc2NC1=O (centres undefined)
SW-620 colon
  TGI: > 100 µM
HL-60(TB) leukemia
  TGI: 50 µM
SF-295 CNS
  TGI: > 100 µM
RXF 393 renal
  TGI: 96.3 µM
HCT-15 colon
  TGI: > 100 µM
EKVX NSCLC
  TGI: > 100 µM
CCRF-CEM leukemia
  TGI: > 100 µM
RPMI-8226 leukemia
  TGI: > 100 µM
U251 CNS
  TGI: > 100 µM

## C[C@@H](O)[C@@H](C)Oc1nc(Nc2ccc(S(=N)(=O)C3CC3)cc2)ncc1C(F)(F)F (some centres undefined)
SW-620 colon
  GI50: 0.0281 µM
  TGI: 4.35 µM
HL-60(TB) leukemia
  GI50: 0.0183 µM
  TGI: 0.0544 µM
SF-295 CNS
  GI50: 0.0312 µM
  TGI: > 55.3 µM
HCT-15 colon
  GI50: 0.0329 µM
  TGI: > 46.8 µM
CCRF-CEM leukemia
  GI50: 0.0231 µM
  TGI: 0.0621 µM
DU-145 prostate
  GI50: 0.0258 µM
  TGI: > 61.8 µM
RPMI-8226 leukemia
  GI50: 0.0226 µM
  TGI: 0.0586 µM
U251 CNS
  GI50: 0.0252 µM
  TGI: 13.2 µM

## Cc1cc2c(cc1Cl)SC(N(c1ccccc1Cl)S(=O)(=O)c1ccc(Br)s1)=NS2(=O)=O
SW-620 colon
  GI50: 14.9 µM
  TGI: 30.4 µM
HL-60(TB) leukemia
  GI50: 16.4 µM
  TGI: 41.9 µM
SF-295 CNS
  GI50: 30.7 µM
  TGI: > 100 µM
HCT-15 colon
  GI50: 15.5 µM
  TGI: 32.7 µM
EKVX NSCLC
  GI50: 21.9 µM
  TGI: 75.5 µM
CCRF-CEM leukemia
  GI50: 25.8 µM
  TGI: 82.1 µM
DU-145 prostate
  GI50: 14.5 µM
  TGI: 33 µM
RPMI-8226 leukemia
  GI50: 24.8 µM
  TGI: 82.3 µM
U251 CNS
  GI50: 16.5 µM
  TGI: 46.3 µM

From PubChem BioAssay (NCI)
